Assay results as given in US11597708B2, “Inhibitors of heat shock factors and uses thereof” (HSF Pharmaceuticals SA, priority 2016, dated 2023).

What was measured:
[1] = target: T1, HSF1 DNA-binding activity (Homo sapiens, UniProt Q00613); test: EMSA of extracts of heat-treated HeLa cells exposed to compound; format: cell-based; conditions: HeLa cells exposed to different concentrations, heat-treated 43° C./30 min; effect of IHSF 058 at 25 or 50 μM
T1 construct: functionally linked to an hsp70b promoter and therefore controlled by endogenous HSF1; endogenous in cells; host or cells: HeLa cells / HeLa-derived cell line Z74
Protocol: FIG. 3. (A) HeLa cell cultures were mock-treated (−) or exposed for 2 hours to the indicated concentrations of compounds 058 or 115 and then heat-treated (HS) at 43° C. for 30 min. Top panels: HSF1 DNA-binding activities in cell extracts were determined by EMSA. The panels show the major HSF1-HSE DNA probe complexes. Middle panels: HSF1 levels assayed by western blot (WB). GAPDH served as a loading control. Bottom panels: HSF1 homooligomerization. Aliquots of extracts were EGS-treated and then analyzed by anti-HSF1 WB. The positions of pre-stained molecular weight marker proteins (MW, in thousands) are indicated to the right. Asterisks indicate the positions of monomeric and trimeric HSF1, respectively. (B) Relative occupancy of the hspa1a promoter was assessed by chromatin immunoprecipitation assay of HeLa cell cultures mock-treated (−) or treated with compounds 058 or 115 at 12.5 μM concentrations for 2 hours and then heat-treated (HS) at 43° C. for 30 min. Chromatin fragments were immunoprecipitated using HSF1 antibodies or an F4/80 LR (control) antibody, and associated hspa1a promoter DNA was quantified by real-time PCR. […]

HeLa = test: Alamar Blue viability assay; format: cell-based, human; conditions: for Viability of HeLa cells (Alamar Blue): 96 hours exposure, attached cells
Protocol: FIG. 5. (A) Viability of HeLa cell cultures mock-exposed (−) or exposed to the indicated concentrations of compounds 001, 058 or 115. (B) Viability of MM.1S cells mock-exposed (−) or exposed to the indicated concentrations of compound 115. Viability was assayed after 96 hours of exposure using an Alamar Blue assay.
FIG. 6. (A) HeLa cell cultures were mock-exposed (−) or exposed to the indicated concentrations of compound 115 for 24 (left panel) or 96 (right panel) hours. Cell viability of total cultures, floating cells and attached cells was assayed using an Alamar Blue assay. (B) HeLa cell cultures were mock-exposed (−) or exposed to the indicated concentrations of compound 115 for 15-96 hours. Trypan Blue dye exclusion was employed to determine numbers of live cells (left panel) and relative levels of necrotic cells (right panel). (C) HeLa cell cultures were mock-exposed (−) or exposed to the indicated concentrations of compound 115 for 6 and 24 h. Shown are relative levels of early apoptotic cells (annexin-positive, 7 aminoactinomycin D-negative). (D) Flow cytometric analysis of DNA of HeLa cell cultures mock-exposed (−) or exposed to the indicated concentrations of compound 115 for 6, 15 and 24 hours. Relative levels of apoptotic cells are indicated.
Cultures of HeLa cells were exposed for 96 hours to different concentrations of IHSF 001, 058 and 115, and viability was assessed using an Alamar Blue assay. It is noted that this standard assay examines attached cells only. This subject will be discussed in more detail below. […] The relative cytotoxicity of the compounds appears to parallel their respective activities as inhibitors of HSF1 function (inhibition of RLuc expression in Z74 cells). We next examined the viability of different human cancer cell lines subsequent to a 96-hour exposure to compound 115 (Table 3). HSF1 was reported as being required for optimal p21 expression and for p53-mediated cell cycle arrest in response to genotoxins. Logan, I. R. et al. (2009) Nucleic Acids Res. 37: 2962-2971. […] Cell lines of different p53 status were included in the experiments in order to find out whether sensitivity to IHSF 115 was related to p53 status. […] No effect of p53 status could be discovered. It is noted that a number of additional HSF inhibitors of the present disclosure were tested and found to effectively reduce the viability of human cancer cells.
Further studies were aimed at finding out whether IHSF-exposed cancer cells were only growth-arrested or were actually killed and, if they were killed, by what mechanism. In one type of experiment, parallel sets of HeLa cell cultures were exposed for either 24 or 96 hours to different concentrations of IHSF 115. The first set was assayed for viability by the Alamar Blue assay without prior removal of floating cells. Attached and floating cells were assayed separately in the second set; floating cells were subsequently re-plated and incubated for 72 hours without compound. […] The viability signal (in whole cultures and, more dramatically, when only attached cells were analyzed) decreased as a function of IHSF concentration. Most floating cells were incapable of re-attaching in the absence of compound (not shown); apparently, these cells had died. More profound effects were observed after 96 hours (right panel) than after 24 hours of exposure (left panel). […] Stained (necrotic) and unstained (live) cells were counted (FIG. 6B). […]

T1 sequence (Q00613 whole entry): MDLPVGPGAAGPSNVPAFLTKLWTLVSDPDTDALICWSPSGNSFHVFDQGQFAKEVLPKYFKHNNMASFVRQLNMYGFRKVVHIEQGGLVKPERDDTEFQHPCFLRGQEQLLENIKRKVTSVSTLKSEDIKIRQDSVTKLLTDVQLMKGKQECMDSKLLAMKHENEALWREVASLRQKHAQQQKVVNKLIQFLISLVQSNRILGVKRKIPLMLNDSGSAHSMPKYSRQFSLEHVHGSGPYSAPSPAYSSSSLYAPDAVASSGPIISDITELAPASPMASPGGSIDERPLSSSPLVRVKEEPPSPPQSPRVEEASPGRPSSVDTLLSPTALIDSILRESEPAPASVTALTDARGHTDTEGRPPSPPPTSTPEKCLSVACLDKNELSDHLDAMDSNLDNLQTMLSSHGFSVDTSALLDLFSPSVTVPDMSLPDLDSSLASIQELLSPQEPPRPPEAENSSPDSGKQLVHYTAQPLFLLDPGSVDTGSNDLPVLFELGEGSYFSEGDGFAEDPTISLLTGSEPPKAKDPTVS

| Compound | heat-induced HSF1 DNA-binding activity (EMSA) [1] | Viability of HeLa cells (Alamar Blue) (HeLa; different concentrations) | killing of HeLa cells (Alamar Blue, total, floating and attached cells) (HeLa; 24 or 96 hours exposure, different concentrations) | EC50 (HeLa; Homo sapiens, HeLa, Cervical, P53 Wt, 96-hour exposure) [µM] |
| --- | --- | --- | --- | --- |
| CCOC(=O)/C=C/C(=O)Nc1ncc(-c2cccnc2)s1 [IHSF 058, (E)-3-(5-Pyridm-3-yl-thiazol-2-ylcarbamoyl)-acrylic acid ethyl ester] | important reductions | decreased in a dose-dependent fashion | – | – |
| CCOC(=O)/C=C/C(=O)Nc1nccs1 [IHSF 001, (E)-ethyl 4-oxo-4-(thiazol-2-ylamino)but-2-enoate] | – | decreased in a dose-dependent fashion | – | – |
| CN(C(=O)/C=C/C1=NCCCO1)c1ncc(-c2cccnc2)s1 [IHSF 115, (E)-3-(5,6-Dihydro-4H-[1,3]oxazin-2-yl)-N-methyl-N-(5-pyridin-3-yl-thiazol-2-yl)-acrylamide] | failed to have a similar effect | decreased in a dose-dependent fashion | killed by IHSF 115 in a concentration- and exposure time-dependent fashion | 6.2 |
